Tests used:
[1] = test system: blood-brain barrier (NaFl brain penetration); experiment: BBB permeability assay (sodium fluorescein), LPS paradigm; assay type: in vivo, mouse; settings: mice, 2 h, label LPS = LPS alone, label Luma = Luma 3 mg/kg IP co-injected with LPS
Protocol: BBB Permeability Assay. […] Mice are perfused with 15 ml 1×PBS solution.
Systemic inflammation is associated with increased permeability of the BBB, and this has been discussed as a potential factor underlying depression pathophysiology. […] Forty-five minutes before sample collection, mice receive NaFl injections (200 μl of 10% solution, IP) (Table 3).

[2] = test system: PBMCs from patients with schizophrenia and co-morbid depression; experiment: Post-hoc analysis of inflammatory biomarkers in PBMCs, phase 3 clinical trial; assay type: in vivo, human
Protocol: A randomized, double-blind, placebo-controlled, phase 3 clinical trial was conducted with 450 patients with schizophrenia, aged 18 to 60 years, who were experiencing an acute exacerbation of psychosis. Patients were included if they were experiencing an acute exacerbation of psychosis, defined as a total score on the Brief Psychiatric Rating Scale of […] or higher, with a score of 4 or higher on 2 or more positive symptoms, and onset of the acute episode within 4 weeks of screening. Patients were required to have a score of 4 or higher, indicating moderate to severe disease severity, on the Clinical Global Impression-Severity of Illness (CGI-S) at screening and baseline. Severity of illness was confirmed at baseline by a Positive and Negative Syndrome Scale (PANSS) total score of 70 or higher, indicating moderate to extreme symptoms of schizophrenia. A subgroup of these patients experienced co-morbid depression symptoms at baseline (defined as having a Calgary Depression Scale for Schizophrenia (CDSS) score greater than 6 at baseline). Full details of the clinical study were reported in Correll et al., JAMA Psychiatry, 77(4): 349-358 (2020).
Using blood samples stored from the study, a post-hoc analysis of inflammatory biomarkers in PBMCs from the patients with schizophrenia and co-morbid depression is conducted. […] Day 0 samples are available for 20 patients, while day 28 samples are available only for 18 patients. Mean baseline CDSS is 10.0, and mean baseline PANSS total score is 88.7 in the selected patients.
Samples were processed to isolate PBMC according to standard procedures using the Ficoll-Paque method. Statistical analysis was performed using the paired t-test, two-tailed. Samples were tested for C-reactive protein (CRP), serum amyloid A (SAA), soluble CAM-1, soluble VCAM-1, IL-1β, TNF-αL, IL-6, IL-10, IL-2, IL-8, IL-13, and IFN-γ. ICAM-1 and VCAM-1 are expressed by the vascular endothelium, macrophages, and lymphocytes. Upon cytokine stimulation, their concentrations greatly increase. ICAM-1 can be induced by IL-1β and TNF. ICAM and VCAM proteins may also be involved in pathogen transit into CNS.
The results are shown in the table below (biomarker levels expressed in ng/mL; some values of N are less than the patient totals due to samples with levels of biomarker below the minimum for quantification): […]

[3] = test system: patients with schizophrenia; experiment: Randomized, double-blind, placebo-controlled phase 3 clinical trial in schizophrenia; assay type: in vivo, human
Protocol: A randomized, double-blind, placebo-controlled, phase 3 clinical trial was conducted with 450 patients with schizophrenia, aged 18 to 60 years, who were experiencing an acute exacerbation of psychosis. Patients were included if they were experiencing an acute exacerbation of psychosis, defined as a total score on the Brief Psychiatric Rating Scale of […] or higher, with a score of 4 or higher on 2 or more positive symptoms, and onset of the acute episode within 4 weeks of screening. Patients were required to have a score of 4 or higher, indicating moderate to severe disease severity, on the Clinical Global Impression-Severity of Illness (CGI-S) at screening and baseline. […]
The primary efficacy end point was mean change from baseline to day 28 in the Positive and Negative Syndrome Scale (PANSS) total score versus placebo. […] The PANSS subscale scores, social function, safety, and tolerability were also assessed. Primary and key secondary efficacy measures were assessed weekly. Safety was assessed by treatment-emergent adverse events (TEAEs), modified physical examinations, 12-lead electrocardiograms (ECGs), vital signs, and clinical laboratory tests (blood and urine samples for clinical laboratory analysis were collected from all subjects upon screening and on Days 1, 8, 28, and 33, following overnight fast).

[4] = Day 28 of 60 mg lumateperone once daily, PBMC, schizophrenia patients with co-morbid depression

Row | Compound | NaFl brain penetration (cerebrum/serum ratio) [1] | CRP, Median [2, 4] | IFN-γ, Average [2, 4] | IFN-γ, Median [2, 4] | IL-1β, Median [2, 4] | IL-2, Average [2, 4] | IL-2, Median [2, 4] | IL-6, Average [2, 4] | IL-6, Median [2, 4] | IL-8, Median [2, 4] | IL-10, Median [2, 4] | TNF-α, Average [2, 4] | TNF-α, Median [2, 4] | sVCAM-1, Median [2, 4] | Levels of inflammatory biomarkers in blood cells (PBMCs) ([2]; after 28 days of treatment, versus baseline, patients with schizophrenia and co-morbid depression) | Symptoms of schizophrenia ([3]; patients with acute exacerbation of psychosis, 60 mg or 40 mg lumateperone tosylate once daily for 28 days vs placebo) | Safety profile ([3]; patients with schizophrenia, 60 mg or 40 mg lumateperone tosylate once daily for 28 days)
1 | lipopolysaccharide [LPS, reference compound] | 1.406 ± 0.0873 arbitrary units normalized to control |  |  |  |  |  |  |  |  |  |  |  |  |  |  |  | 
2 | CN1CCN2c3c(cccc31)[C@@H]1CN(CCCC(=O)c3ccc(F)cc3)CC[C@@H]12 [Luma, lumateperone] |  | 38.0 ng/mL | 0.86 ng/mL | 0.71 ng/mL | 0.74 ng/mL | 0.37 ng/mL | 0.25 ng/mL | 0.55 ng/mL | 0.32 ng/mL | 44.0 ng/mL | 0.21 ng/mL | 0.83 ng/mL | 0.43 ng/mL | 42.0 ng/mL | significantly reduced | effective for improving the symptoms of schizophrenia | favorable safety profile
